Experiments:
[1] = target: T1, farnesoid X receptor (FXR) (Homo sapiens, UniProt Q96RI1); test: FXR luciferase reporter assay, agonistic and antagonistic setups; assay type: cell-based; details: prototype ligand 6-OCA
T1 construct: the full-length expression vector was paired with pFXRE-luc luciferase construct; expressed in transfected cells
Procedure: (§1) For the farnesoid X receptor (FXR) luciferase gene reporter assay, the full-length expression vector was paired with pFXRE-luc luciferase construct. The p1A1-luc construct was used in the aryl hydrocarbon receptor (AhR) assays with pRL-TK for normalization. Gal4-LXR-α/β, and Gal4-PPAR-γ constructs were used with the pGAL4 UAS-luc construct. For the VDR assay, expression vector pSG5-hVDR together with pVDRE-luc constructs was used. Firefly and Renilla luciferase activities were analyzed using a Dual reporter assay (Promega). For the nuclear receptor assays, prototype ligands were used at the following concentrations: Calcitriol for VDR (100 nM), GW3965 for LXRα and LXRβ (10 μM), 6-OCA for FXR (1 μM), fenofibrate for PPARα (10 μM), estradiol for ERα and β (10 μM), rosiglitazone for PPARγ (10 μM), 3-MC for AhR (5 μM), and TCPOBOP for mCAR (10 μM). Detailed descriptions and protocols are detailed in our recent publication. ,

[2] = target: AhR (Homo sapiens, UniProt P35869); test: AhR agonist reporter assay; assay type: cell-based; details: 10 µM MI891
Procedure: as §1, with “publication. , […]” for “publication. ,”
(§2) hydrophobic interactions. (F) Superimposed diagram of PXR bound with agonist (SJPYT-328) and antagonists (MI891 and SJPYT-331) to differentiate the agonist and antagonist interactions with helix 12 (H12). The interaction of the agonist with PXR residue (L428) is circled. (G) Extended nuclear receptor selectivity profile. […]

[3] = system: ERα/β; test: ERα/β agonist reporter assay; assay type: cell-based; details: 10 µM MI891
Procedure: as §1, with “publication. , […]” for “publication. ,”
as §2

[4] = target: T2, PXR-HiBiT (Homo sapiens, UniProt O75469+Q96SW2); test: Nano-Glo HiBiT lytic assay in HepG2 cells; assay type: cell-based; details: HepG2, 10 μM, 8 h, 0.3 ng PXR-HiBiT vector
T2 construct: host or cells: HepG2
Procedure: For HiBiT assay, HepG2 cells (40,000 cells/well) were seeded in a 48-well plate. The following day, cells were transfected with 0.3–100 ng of PXR-HiBiT (GenScript-HiBiT_NR1I2_OHu23779D_pcDNA3.1+/C-(K)-DYK) and 0.3–100 ng of CRBN (GenScript-CRBN_OHu21180D_pcDNA3.1+/C-(K)-DYK) in a 1:1 ratio using Lipofectamine 3000 (ThermoFisher Scientific), following the manufacturer’s protocol. After 24 h, cells were treated with varying concentrations of MI1013, and vehicle (0.1% DMSO). The plates were incubated for 8 h, and the HiBiT NanoLuc signal was measured using the Nano-Glo HiBiT Lytic Detection System (Promega; […]) in a Synergy microplate reader (Biotek) under luminescence mode with a read time of 0.2 s/well, gain set as auto, and integration time 2 s. Results are reported as relative abundance or response (%) change relative to DMSO control cells. […] The DC50 value was calculated using a curve fit–log(inhibitor) vs response–with a variable slope (four-parameter) logistic fitting using GraphPad Prism.

[5] = target: T3, PXR LBD (Homo sapiens, UniProt O75469); test: LanthaScreen TR-FRET PXR competitive binding assay; details: recombinant PXR LBD, competition with tracer
T3 construct: purchased Thermo Fisher Scientific PV4839
Procedure: We utilized the LanthaScreen TR-FRET CAR Coactivator Binding Assay Kit, goat (Thermo Fisher Scientific, Cat. No. PV4836), which includes GST-tagged human CAR LBD and a fluorescein-labeled PGC1α coactivator peptide. The assay was performed with slight modifications to the manufacturer’s protocol, as previously reported. […] The interaction with the PXR ligand-binding domain (LBD) was assessed using the LanthaScreen TR-FRET PXR Competitive Binding Assay (Thermo Fisher Scientific, PV4839), as previously described. This assay quantifies the ability of test compounds to displace a fluorescent PXR ligand from the receptor. Fluorescence readings were taken on a Synergy 2 Multi-Mode Microplate Reader (BioTek, Winooski, VT). The half-maximal inhibitory concentration (IC50) for PXR LBD was calculated from at least eight data points using GraphPad Prism software.

T2 sequence (O75469 whole entry): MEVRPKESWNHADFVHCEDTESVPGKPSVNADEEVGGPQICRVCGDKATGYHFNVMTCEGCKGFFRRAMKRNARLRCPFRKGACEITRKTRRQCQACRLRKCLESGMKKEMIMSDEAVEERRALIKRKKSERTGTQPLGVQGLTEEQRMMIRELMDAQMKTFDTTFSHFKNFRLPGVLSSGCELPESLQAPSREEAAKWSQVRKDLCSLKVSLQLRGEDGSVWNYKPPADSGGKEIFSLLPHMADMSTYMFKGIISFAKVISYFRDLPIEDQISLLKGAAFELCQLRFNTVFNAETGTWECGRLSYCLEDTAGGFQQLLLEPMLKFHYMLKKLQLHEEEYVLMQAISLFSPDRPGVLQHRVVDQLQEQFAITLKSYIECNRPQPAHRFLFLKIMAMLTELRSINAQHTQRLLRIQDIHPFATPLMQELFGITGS
T2 sequence (Q96SW2 whole entry): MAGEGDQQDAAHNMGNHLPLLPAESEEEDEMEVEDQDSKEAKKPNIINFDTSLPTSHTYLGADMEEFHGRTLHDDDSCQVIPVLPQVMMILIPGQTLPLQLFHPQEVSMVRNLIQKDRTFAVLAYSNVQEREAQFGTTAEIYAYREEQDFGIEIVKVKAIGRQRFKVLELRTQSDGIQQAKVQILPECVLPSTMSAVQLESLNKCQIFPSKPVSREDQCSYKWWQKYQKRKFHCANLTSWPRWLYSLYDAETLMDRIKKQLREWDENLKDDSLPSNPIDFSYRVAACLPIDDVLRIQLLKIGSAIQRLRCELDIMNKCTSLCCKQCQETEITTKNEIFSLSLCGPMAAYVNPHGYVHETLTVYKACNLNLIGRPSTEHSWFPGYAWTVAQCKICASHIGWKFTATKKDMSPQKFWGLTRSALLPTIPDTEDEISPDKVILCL
Chain of AhR (P35869 11-848, species assumed): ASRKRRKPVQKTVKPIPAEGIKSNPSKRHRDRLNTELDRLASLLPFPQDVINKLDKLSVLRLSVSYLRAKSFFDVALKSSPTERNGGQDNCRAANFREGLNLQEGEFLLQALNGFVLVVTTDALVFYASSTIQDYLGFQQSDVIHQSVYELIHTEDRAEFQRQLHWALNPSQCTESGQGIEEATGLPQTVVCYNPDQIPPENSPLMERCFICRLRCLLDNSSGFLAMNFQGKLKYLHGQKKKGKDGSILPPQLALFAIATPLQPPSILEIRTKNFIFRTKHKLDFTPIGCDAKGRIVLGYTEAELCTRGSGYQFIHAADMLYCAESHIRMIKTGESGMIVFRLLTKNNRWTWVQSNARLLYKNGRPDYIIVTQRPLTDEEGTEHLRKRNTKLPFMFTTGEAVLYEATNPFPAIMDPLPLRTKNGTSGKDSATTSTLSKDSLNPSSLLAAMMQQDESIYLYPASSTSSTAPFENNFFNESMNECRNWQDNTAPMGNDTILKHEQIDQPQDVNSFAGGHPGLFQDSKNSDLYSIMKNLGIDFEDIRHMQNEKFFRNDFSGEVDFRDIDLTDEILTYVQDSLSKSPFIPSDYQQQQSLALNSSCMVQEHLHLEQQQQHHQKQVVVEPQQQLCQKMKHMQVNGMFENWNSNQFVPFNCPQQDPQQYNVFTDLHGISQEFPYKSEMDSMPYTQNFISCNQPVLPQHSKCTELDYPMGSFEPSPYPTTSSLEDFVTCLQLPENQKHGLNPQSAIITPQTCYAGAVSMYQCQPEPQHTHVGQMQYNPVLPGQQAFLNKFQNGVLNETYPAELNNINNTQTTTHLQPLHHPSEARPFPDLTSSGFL
T1 sequence (Q96RI1 whole entry): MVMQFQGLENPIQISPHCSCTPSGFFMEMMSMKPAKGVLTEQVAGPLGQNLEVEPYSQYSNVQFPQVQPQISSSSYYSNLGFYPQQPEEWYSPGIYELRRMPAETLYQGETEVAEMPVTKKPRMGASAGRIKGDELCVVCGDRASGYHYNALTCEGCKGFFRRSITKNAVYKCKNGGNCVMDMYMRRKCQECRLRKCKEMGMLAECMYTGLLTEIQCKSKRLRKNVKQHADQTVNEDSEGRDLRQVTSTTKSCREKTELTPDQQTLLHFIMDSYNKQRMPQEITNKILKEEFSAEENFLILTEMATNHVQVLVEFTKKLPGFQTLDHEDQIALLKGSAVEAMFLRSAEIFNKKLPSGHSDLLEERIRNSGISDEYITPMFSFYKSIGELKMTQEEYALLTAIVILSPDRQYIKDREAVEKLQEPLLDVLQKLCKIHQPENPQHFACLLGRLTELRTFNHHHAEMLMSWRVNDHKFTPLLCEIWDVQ
T3 sequence (O75469 146-433 limits assumed): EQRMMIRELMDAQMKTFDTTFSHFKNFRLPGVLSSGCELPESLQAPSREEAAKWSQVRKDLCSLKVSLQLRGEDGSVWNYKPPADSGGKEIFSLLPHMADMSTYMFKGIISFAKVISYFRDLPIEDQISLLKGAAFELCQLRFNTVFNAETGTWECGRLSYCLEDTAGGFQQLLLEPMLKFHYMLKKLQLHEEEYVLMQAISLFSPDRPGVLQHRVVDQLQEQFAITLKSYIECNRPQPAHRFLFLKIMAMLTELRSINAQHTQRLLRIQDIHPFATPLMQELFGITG

Row | Compound | agonistic or antagonistic activity on FXR [1] | agonistic effect on AhR [2] | agonistic effect on ERα/β [3] | PXR-HiBiT degradation [4] | binding to PXR LBD compared to MI1011B and SR12813 [5]
1 | NC(=O)c1cc(Cn2cc(-c3c(-c4ccc(Cl)cc4)nc4c(F)cc(F)cn34)nn2)ccc1Cl [Compound 11, 2-Chloro-5-((4-(2-(4-chlorophenyl)-6,8-difluoroimidazo[1,2-a]pyridin-3-yl)-1H-1,2,3-triazol-1-yl)methyl)-benzamide] | no significant agonistic or antagonistic activities | no agonistic effects | no agonistic effects | – | –
2 | N-(4-((1-(2,5-dimethoxyphenyl)-5-methyl-1H-1,2,3-triazol-4-yl)sulfonyl)phenyl)-3-(2-(2-(2-(4-(((2-(2,6-dioxopiperidin-3-yl)-1,3-dioxoisoindolin-4-yl)amino)methyl)-1H-1,2,3-triazol-1-yl)ethoxy)ethoxy)ethoxy)propenamide [Compound 36] | – | – | – | confirmed PXR degradation | weaker binding to PXR LBD

Reference: article PMC12305494, “Discovery of PXR Antagonist MI891 and PXR Degrader MI1013 and Their Roles in Hepatic Gene Regulation” (Journal of Medicinal Chemistry, 2025)
